Molecular target: Induced myeloid leukemia cell differentiation protein Mcl-1 (Homo sapiens, UniProt Q07820)
Sequence (Q07820 whole entry): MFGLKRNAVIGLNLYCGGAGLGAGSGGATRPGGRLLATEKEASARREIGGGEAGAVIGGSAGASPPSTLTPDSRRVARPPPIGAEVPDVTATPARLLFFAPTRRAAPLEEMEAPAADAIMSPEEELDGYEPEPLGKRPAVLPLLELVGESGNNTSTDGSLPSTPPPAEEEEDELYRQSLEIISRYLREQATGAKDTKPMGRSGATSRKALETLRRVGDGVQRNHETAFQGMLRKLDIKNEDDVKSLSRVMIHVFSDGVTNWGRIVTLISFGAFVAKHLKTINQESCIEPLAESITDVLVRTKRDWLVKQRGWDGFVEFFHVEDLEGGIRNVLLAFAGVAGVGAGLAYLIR

Compound `Oc1ccccc1-c1cc(C(F)(F)C(F)(F)F)[nH]n1` has a Kd of 1500 µM.

Reference: ChEMBL document CHEMBL3785006, “Discovery of 2-Indole-acylsulfonamide Myeloid Cell Leukemia 1 (Mcl-1) Inhibitors Using Fragment-Based Methods” (J Med Chem, 2016)
